Laboratory results taken from ChEMBL document CHEMBL1201862, “PubChem BioAssay data set” (2004).
Calls of active or inactive are those of the source.

What was measured:
[1] = biological target: T1, Calpain-2 catalytic subunit (Sus scrofa, UniProt P43367); test: m-calpain protease blockers, concentration series – biochemical, fluorogenic peptide substrate, dose response (AID 1420); assay type: functional
T1 sequence (P43367 whole entry): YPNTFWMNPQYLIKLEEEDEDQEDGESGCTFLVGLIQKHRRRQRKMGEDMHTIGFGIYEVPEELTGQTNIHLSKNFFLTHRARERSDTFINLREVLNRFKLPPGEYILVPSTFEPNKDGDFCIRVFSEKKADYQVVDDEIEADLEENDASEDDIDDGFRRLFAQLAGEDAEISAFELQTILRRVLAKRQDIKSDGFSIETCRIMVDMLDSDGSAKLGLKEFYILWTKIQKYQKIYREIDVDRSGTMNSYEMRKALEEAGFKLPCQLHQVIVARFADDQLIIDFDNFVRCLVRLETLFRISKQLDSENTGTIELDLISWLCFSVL

[2] = biological target: T2, Replicative DNA helicase DnaB (Mycobacterium tuberculosis, UniProt P9WMR3); test: DnaB intein splicing inhibitors, dose response, biochemical, cell-free fluorescence (AID 449749); assay type: functional
T2 sequence (P9WMR3 whole entry): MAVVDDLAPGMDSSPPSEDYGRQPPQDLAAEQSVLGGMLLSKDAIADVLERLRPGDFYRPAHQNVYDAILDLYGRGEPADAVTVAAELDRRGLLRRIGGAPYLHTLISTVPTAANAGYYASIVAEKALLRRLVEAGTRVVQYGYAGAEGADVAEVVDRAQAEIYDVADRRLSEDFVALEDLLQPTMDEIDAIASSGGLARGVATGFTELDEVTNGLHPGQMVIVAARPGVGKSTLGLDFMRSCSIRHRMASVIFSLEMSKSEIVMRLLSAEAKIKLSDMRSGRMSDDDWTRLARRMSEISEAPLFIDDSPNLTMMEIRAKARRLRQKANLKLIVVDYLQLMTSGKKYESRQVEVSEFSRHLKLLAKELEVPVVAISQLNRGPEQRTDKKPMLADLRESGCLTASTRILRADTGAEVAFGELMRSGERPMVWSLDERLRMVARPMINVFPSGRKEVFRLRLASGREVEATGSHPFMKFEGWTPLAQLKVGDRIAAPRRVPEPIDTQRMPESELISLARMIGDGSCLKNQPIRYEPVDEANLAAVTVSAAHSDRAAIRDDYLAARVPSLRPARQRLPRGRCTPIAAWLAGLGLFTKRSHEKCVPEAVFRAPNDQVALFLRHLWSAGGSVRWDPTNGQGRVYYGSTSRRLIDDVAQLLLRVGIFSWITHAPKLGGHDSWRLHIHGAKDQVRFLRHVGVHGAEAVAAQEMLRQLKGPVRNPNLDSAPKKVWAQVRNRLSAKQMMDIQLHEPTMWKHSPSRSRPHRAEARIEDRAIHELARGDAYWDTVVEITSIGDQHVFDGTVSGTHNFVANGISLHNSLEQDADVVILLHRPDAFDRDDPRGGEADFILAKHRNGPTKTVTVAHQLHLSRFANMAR

[3] = biological target: T3, Caspase-3 (Homo sapiens, UniProt P42574); assay type: functional;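 further: Dose-response selectivity test against caspase-3 for candidate inhibitors of sentrin-specific proteases (SENPs)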
T3 sequence (P42574 whole entry): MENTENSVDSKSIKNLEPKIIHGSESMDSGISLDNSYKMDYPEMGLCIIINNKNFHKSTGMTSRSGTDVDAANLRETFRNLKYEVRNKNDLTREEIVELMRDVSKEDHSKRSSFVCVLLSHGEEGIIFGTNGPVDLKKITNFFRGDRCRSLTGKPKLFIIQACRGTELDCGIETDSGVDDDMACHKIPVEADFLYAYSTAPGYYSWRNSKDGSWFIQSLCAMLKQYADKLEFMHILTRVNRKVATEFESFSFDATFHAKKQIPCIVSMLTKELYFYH

[4] = biological target: T4, Sentrin-specific protease 8 (Homo sapiens, UniProt Q96LD8); assay type: functional;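 further: luminescence read-out of SENP8 inhibition, dose-response confirmation following an ultra-high-throughput screen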
T4 sequence (Q96LD8 whole entry): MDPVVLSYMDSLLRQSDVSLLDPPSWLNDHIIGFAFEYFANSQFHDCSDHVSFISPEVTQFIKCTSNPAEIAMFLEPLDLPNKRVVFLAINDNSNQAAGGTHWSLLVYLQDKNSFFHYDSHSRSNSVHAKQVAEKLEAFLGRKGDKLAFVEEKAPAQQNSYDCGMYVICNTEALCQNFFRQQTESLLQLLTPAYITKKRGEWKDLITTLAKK

[5] = biological target: T5, Tyrosyl-DNA phosphodiesterase 2 (Homo sapiens, UniProt O95551); test: potency against TDP2 phosphodiesterase activity – biochemical, epi absorbance, IC50, dose response (AID 743297)
T5 sequence (O95551 whole entry): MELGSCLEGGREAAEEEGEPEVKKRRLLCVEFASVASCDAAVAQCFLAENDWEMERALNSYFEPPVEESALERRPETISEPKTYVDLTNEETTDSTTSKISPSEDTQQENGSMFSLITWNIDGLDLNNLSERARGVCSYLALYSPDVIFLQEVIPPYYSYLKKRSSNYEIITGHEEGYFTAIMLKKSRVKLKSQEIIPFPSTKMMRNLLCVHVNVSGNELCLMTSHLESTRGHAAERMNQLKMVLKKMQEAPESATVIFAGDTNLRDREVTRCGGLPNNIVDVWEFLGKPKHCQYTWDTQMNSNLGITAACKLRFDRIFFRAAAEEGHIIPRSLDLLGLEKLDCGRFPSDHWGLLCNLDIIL

[6] = test system: Streptococcus sp. 'group A'; test: Streptococcus pyogenes SK(-)GAS viability under kanamycin – luminescence, BacTiterGlo, confirmation, counter-screen for streptokinase expression inhibitor project, dose response (AID 1900); assay type: functional, organism-based
[7] = biological target: T6, Streptokinase A (Streptococcus pyogenes serotype M1, UniProt P10520); test: viability-normalized secreted streptokinase activity reduction – plasminogen activation absorbance, OD405, dose response (AID 1914); assay type: functional, Streptococcus pyogenes M1 GAS;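 further: secreted streptokinase activity via plasminogen activation per viability signal from cell pellet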
T6 sequence (P10520 whole entry): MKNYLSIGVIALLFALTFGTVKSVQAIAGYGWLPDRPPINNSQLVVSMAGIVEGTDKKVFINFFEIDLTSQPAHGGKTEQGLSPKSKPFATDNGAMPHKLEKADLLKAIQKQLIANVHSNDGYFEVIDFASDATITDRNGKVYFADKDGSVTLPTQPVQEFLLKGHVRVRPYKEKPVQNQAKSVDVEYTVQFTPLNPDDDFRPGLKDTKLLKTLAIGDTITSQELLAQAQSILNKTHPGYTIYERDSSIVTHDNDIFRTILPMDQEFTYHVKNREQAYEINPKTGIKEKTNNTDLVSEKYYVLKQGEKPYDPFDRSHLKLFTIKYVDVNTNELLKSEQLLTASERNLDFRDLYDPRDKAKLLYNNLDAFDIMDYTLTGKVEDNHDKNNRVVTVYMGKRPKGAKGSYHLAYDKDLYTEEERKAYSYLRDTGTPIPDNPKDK

[8] = test system: Streptococcus; test: GAS UMAA2166 growth inhibition – luminescence, BacTiterGlo, counter-screen for streptokinase expression inhibitor project, dose response (AID 1915); assay type: functional, organism-based;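 further: potency for reduction of bacterial viability or growth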

SMILES | IC50 [1] | AC50 [2] | IC50 [3] | IC50 [4] | IC50 [5] | EC50 [6] | EC50 [7] | EC50 [8]
Cn1nc(-c2ccc(Cl)cc2)nc2c(=O)n(C)c(=O)nc1-2 | 24.7 µM (not active) | 0.0409 µM (active) | – | – | – | – | – | –
SC1=Nc2ccccc2C1 | 14.9 µM (not active) | 1.77 µM (active) | – | – | – | – | – | –
NS(=O)(=O)c1ccc(NC(=O)COC(=O)c2ccc([N+](=O)[O-])s2)cc1 | – | – | 10.2 µM (active) | 4.33 µM (active) | 32.2 µM (inactive) | – | – | –
CCCCNc1cc(NC(C)=O)cc2cc(OC)c(OC)cc12 | – | – | 20.7 µM (active) | 18.3 µM (active) | 87.5 µM (inactive) | – | – | –
COc1ccc(C(NC(=O)C(C)C)c2ccc3cccnc3c2O)cc1 (stereo unspecified) | – | – | – | – | – | 7.99 µM (active) | > 150 µM (not active) | > 150 µM (not active)
O=C(Cc1ccc([N+](=O)[O-])cc1)N/N=C/c1ccc([N+](=O)[O-])o1 | – | – | – | – | – | 11.9 µM (active) | 37 µM (active) | 21.7 µM (active)
